Measured values as given in ChEMBL document CHEMBL2057188, “Hybridizing ability and nuclease resistance profile of backbone modified cationic phosphorothioate oligonucleotides” (Bioorg Med Chem, 2012).

Assays:
Assay type in all cases: nucleic-acid assay
[1] = test system: Nucleic Acid; assay: (§1) DNA hybridizing activity at single stranded DNA assessed as thermal stability of duplexes formed between compound and complimentary ssDNA by measuring melting temperature at 4 uM in presence of 10 mM pH 7.2 sodium phosphate buffer containing 100 mM NaCl by UV based melting experiment
[2] = test system: Nucleic Acid; assay: as §1, with “measuring change in” for “measuring”, “experiment relative to untreated control” for “experiment”
[3] = test system: Nucleic Acid; assay: (§2) DNA hybridizing activity at single stranded RNA assessed as thermal stability of duplexes formed between compound and complimentary ssRNA by measuring melting temperature at 4 uM in presence of 10 mM pH 7.2 sodium phosphate buffer containing 100 mM NaCl by UV based melting experiment
[4] = test system: Nucleic Acid; assay: as §2, with “measuring change in” for “measuring”, “experiment relative to untreated control” for “experiment”
[5] = test system: Nucleic Acid; assay: (§3) DNA hybridizing activity at 22 bp double stranded DNA assessed as thermal stability of duplexes formed between compound and complimentary dsDNA by measuring melting temperature at 1.5 uM in presence of 7 mM pH 5.5 sodium phosphate buffer containing 140 mM K, 10 mM MgCl2 by UV based melting experiment
[6] = test system: Nucleic Acid; assay: as §3, with “measuring change in” for “measuring”

`Cc1cn([C@H]2C[C@H](OP(=O)(O)OC[C@H]3O[C@@H](n4cc(C)c(=O)[nH]c4=O)C[C@@H]3OP(=O)(O)OC[C@H]3O[C@@H](n4cc(C)c(=O)[nH]c4=O)C[C@@H]3O[P@@](=O)(OC[C@H]3O[C@@H](n4cc(C)c(=O)[nH]c4=O)C[C@@H]3OP(=O)(O)OC[C@H]3O[C@@H](n4cc(C)c(=O)[nH]c4=O)C[C@@H]3OP(=O)(O)OC[C@H]3O[C@@H](n4cc(C)c(=O)[nH]c4=O)C[C@@H]3OP(=O)(O)OC[C@H]3O[C@@H](n4ccc(N)nc4=O)C[C@@H]3OP(=O)(O)OC[C@H]3O[C@@H](n4ccc(N)nc4=O)C[C@@H]3OP(=O)(O)OC[C@H]3O[C@@H](n4ccc(N)nc4=O)C[C@@H]3OP(=O)(O)O)SCCN)[C@@H](COP(=O)(O)O[C@H]3C[C@H](n4ccc(N)nc4=O)O[C@@H]3COP(=O)(O)O[C@H]3C[C@H](n4ccc(N)nc4=O)O[C@@H]3COP(=O)(O)O[C@H]3C[C@H](n4ccc(N)nc4=O)O[C@@H]3CO)O2)c(=O)[nH]c1=O` was tested, and the Tm [1] was 45 °C, the ΔTm [2] was 3 °C and the Tm [3] was 45 °C. For the same molecule, the ΔTm [4] was -1 °C, the Tm [5] was 29 °C and the ΔTm [6] was 4 °C.
`Cc1cn([C@H]2C[C@H](OP(=O)(O)OC[C@H]3O[C@@H](n4cc(C)c(=O)[nH]c4=O)C[C@@H]3OP(=O)(O)OC[C@H]3O[C@@H](n4cc(C)c(=O)[nH]c4=O)C[C@@H]3O[P@@](=O)(OC[C@H]3O[C@@H](n4cc(C)c(=O)[nH]c4=O)C[C@@H]3OP(=O)(O)OC[C@H]3O[C@@H](n4cc(C)c(=O)[nH]c4=O)C[C@@H]3OP(=O)(O)OC[C@H]3O[C@@H](n4cc(C)c(=O)[nH]c4=O)C[C@@H]3OP(=O)(O)OC[C@H]3O[C@@H](n4ccc(N)nc4=O)C[C@@H]3OP(=O)(O)OC[C@H]3O[C@@H](n4ccc(N)nc4=O)C[C@@H]3OP(=O)(O)OC[C@H]3O[C@@H](n4ccc(N)nc4=O)C[C@@H]3OP(=O)(O)O)SCCCN3CCNCC3)[C@@H](COP(=O)(O)O[C@H]3C[C@H](n4ccc(N)nc4=O)O[C@@H]3COP(=O)(O)O[C@H]3C[C@H](n4ccc(N)nc4=O)O[C@@H]3COP(=O)(O)O[C@H]3C[C@H](n4ccc(N)nc4=O)O[C@@H]3CO)O2)c(=O)[nH]c1=O` gave a Tm [1] of 45 °C, a ΔTm [2] of 3 °C and a Tm [3] of 45 °C. For the same molecule, the ΔTm [4] was -1 °C, the Tm [5] was 27 °C and the ΔTm [6] was 2 °C.
Molecule `Cc1cn([C@H]2C[C@H](OP(=O)(O)OC[C@H]3O[C@@H](n4cc(C)c(=O)[nH]c4=O)C[C@@H]3OP(=O)(O)OC[C@H]3O[C@@H](n4cc(C)c(=O)[nH]c4=O)C[C@@H]3O[P@](=O)(OC[C@H]3O[C@@H](n4cc(C)c(=O)[nH]c4=O)C[C@@H]3OP(=O)(O)OC[C@H]3O[C@@H](n4cc(C)c(=O)[nH]c4=O)C[C@@H]3OP(=O)(O)OC[C@H]3O[C@@H](n4cc(C)c(=O)[nH]c4=O)C[C@@H]3OP(=O)(O)OC[C@H]3O[C@@H](n4ccc(N)nc4=O)C[C@@H]3OP(=O)(O)OC[C@H]3O[C@@H](n4ccc(N)nc4=O)C[C@@H]3OP(=O)(O)OC[C@H]3O[C@@H](n4ccc(N)nc4=O)C[C@@H]3OP(=O)(O)O)SCCN)[C@@H](COP(=O)(O)O[C@H]3C[C@H](n4ccc(N)nc4=O)O[C@@H]3COP(=O)(O)O[C@H]3C[C@H](n4ccc(N)nc4=O)O[C@@H]3COP(=O)(O)O[C@H]3C[C@H](n4ccc(N)nc4=O)O[C@@H]3CO)O2)c(=O)[nH]c1=O` has a Tm [1] of 41 °C, a ΔTm [2] of -1 °C and a Tm [3] of 43 °C. It also gave a ΔTm [4] of -3 °C, a Tm [5] of 24 °C and a ΔTm [6] of -2 °C.
Work on `Cc1cn([C@H]2C[C@H](OP(=O)(O)OC[C@H]3O[C@@H](n4cc(C)c(=O)[nH]c4=O)C[C@@H]3OP(=O)(O)OC[C@H]3O[C@@H](n4cc(C)c(=O)[nH]c4=O)C[C@@H]3O[P@@](=O)(OC[C@H]3O[C@@H](n4cc(C)c(=O)[nH]c4=O)C[C@@H]3OP(=O)(O)OC[C@H]3O[C@@H](n4cc(C)c(=O)[nH]c4=O)C[C@@H]3OP(=O)(O)OC[C@H]3O[C@@H](n4cc(C)c(=O)[nH]c4=O)C[C@@H]3OP(=O)(O)OC[C@H]3O[C@@H](n4ccc(N)nc4=O)C[C@@H]3OP(=O)(O)OC[C@H]3O[C@@H](n4ccc(N)nc4=O)C[C@@H]3OP(=O)(O)OC[C@H]3O[C@@H](n4ccc(N)nc4=O)C[C@@H]3OP(=O)(O)O)SCCCCCCN)[C@@H](COP(=O)(O)O[C@H]3C[C@H](n4ccc(N)nc4=O)O[C@@H]3COP(=O)(O)O[C@H]3C[C@H](n4ccc(N)nc4=O)O[C@@H]3COP(=O)(O)O[C@H]3C[C@H](n4ccc(N)nc4=O)O[C@@H]3CO)O2)c(=O)[nH]c1=O` yielded a Tm [1] of 42 °C, a ΔTm [2] of 0 °C and a Tm [3] of 43 °C. For the same molecule, the ΔTm [4] was -3 °C, the Tm [5] was 27 °C and the ΔTm [6] was 2 °C.
In the case of `Cc1cn([C@H]2C[C@H](OP(=O)(O)OC[C@H]3O[C@@H](n4cc(C)c(=O)[nH]c4=O)C[C@@H]3OP(=O)(O)OC[C@H]3O[C@@H](n4cc(C)c(=O)[nH]c4=O)C[C@@H]3O[P@](=O)(OC[C@H]3O[C@@H](n4cc(C)c(=O)[nH]c4=O)C[C@@H]3OP(=O)(O)OC[C@H]3O[C@@H](n4cc(C)c(=O)[nH]c4=O)C[C@@H]3OP(=O)(O)OC[C@H]3O[C@@H](n4cc(C)c(=O)[nH]c4=O)C[C@@H]3OP(=O)(O)OC[C@H]3O[C@@H](n4ccc(N)nc4=O)C[C@@H]3OP(=O)(O)OC[C@H]3O[C@@H](n4ccc(N)nc4=O)C[C@@H]3OP(=O)(O)OC[C@H]3O[C@@H](n4ccc(N)nc4=O)C[C@@H]3OP(=O)(O)O)SCCCN)[C@@H](COP(=O)(O)O[C@H]3C[C@H](n4ccc(N)nc4=O)O[C@@H]3COP(=O)(O)O[C@H]3C[C@H](n4ccc(N)nc4=O)O[C@@H]3COP(=O)(O)O[C@H]3C[C@H](n4ccc(N)nc4=O)O[C@@H]3CO)O2)c(=O)[nH]c1=O`, the Tm [1] is reported as 40 °C, the ΔTm [2] is reported as -2 °C and the Tm [3] is reported as 43 °C. For the same molecule, the ΔTm [4] was -3 °C, the Tm [5] was 24 °C and the ΔTm [6] was -2 °C.
`Cc1cn([C@H]2C[C@H](OP(=O)(O)OC[C@H]3O[C@@H](n4cc(C)c(=O)[nH]c4=O)C[C@@H]3OP(=O)(O)OC[C@H]3O[C@@H](n4cc(C)c(=O)[nH]c4=O)C[C@@H]3O[P@@](=O)(OC[C@H]3O[C@@H](n4cc(C)c(=O)[nH]c4=O)C[C@@H]3OP(=O)(O)OC[C@H]3O[C@@H](n4cc(C)c(=O)[nH]c4=O)C[C@@H]3OP(=O)(O)OC[C@H]3O[C@@H](n4cc(C)c(=O)[nH]c4=O)C[C@@H]3OP(=O)(O)OC[C@H]3O[C@@H](n4ccc(N)nc4=O)C[C@@H]3OP(=O)(O)OC[C@H]3O[C@@H](n4ccc(N)nc4=O)C[C@@H]3OP(=O)(O)OC[C@H]3O[C@@H](n4ccc(N)nc4=O)C[C@@H]3OP(=O)(O)O)SCCNCCCN)[C@@H](COP(=O)(O)O[C@H]3C[C@H](n4ccc(N)nc4=O)O[C@@H]3COP(=O)(O)O[C@H]3C[C@H](n4ccc(N)nc4=O)O[C@@H]3COP(=O)(O)O[C@H]3C[C@H](n4ccc(N)nc4=O)O[C@@H]3CO)O2)c(=O)[nH]c1=O` showed a Tm [1] of 45 °C, a ΔTm [2] of 3 °C and a Tm [3] of 46 °C. The ΔTm [4] was 0 °C, the Tm [5] was 31 °C and the ΔTm [6] was 6 °C.
Work on `Cc1cn([C@H]2C[C@H](OP(=O)(O)OC[C@H]3O[C@@H](n4cc(C)c(=O)[nH]c4=O)C[C@@H]3OP(=O)(O)OC[C@H]3O[C@@H](n4cc(C)c(=O)[nH]c4=O)C[C@@H]3O[P@](=O)(OC[C@H]3O[C@@H](n4cc(C)c(=O)[nH]c4=O)C[C@@H]3OP(=O)(O)OC[C@H]3O[C@@H](n4cc(C)c(=O)[nH]c4=O)C[C@@H]3OP(=O)(O)OC[C@H]3O[C@@H](n4cc(C)c(=O)[nH]c4=O)C[C@@H]3OP(=O)(O)OC[C@H]3O[C@@H](n4ccc(N)nc4=O)C[C@@H]3OP(=O)(O)OC[C@H]3O[C@@H](n4ccc(N)nc4=O)C[C@@H]3OP(=O)(O)OC[C@H]3O[C@@H](n4ccc(N)nc4=O)C[C@@H]3OP(=O)(O)O)SCCCCN)[C@@H](COP(=O)(O)O[C@H]3C[C@H](n4ccc(N)nc4=O)O[C@@H]3COP(=O)(O)O[C@H]3C[C@H](n4ccc(N)nc4=O)O[C@@H]3COP(=O)(O)O[C@H]3C[C@H](n4ccc(N)nc4=O)O[C@@H]3CO)O2)c(=O)[nH]c1=O` yielded a Tm [1] of 40 °C, a ΔTm [2] of -2 °C and a Tm [3] of 43 °C. The ΔTm [4] was -3 °C, the Tm [5] was 24 °C and the ΔTm [6] was -2 °C.
In the case of `Cc1cn([C@H]2C[C@H](OP(=O)(O)OC[C@H]3O[C@@H](n4cc(C)c(=O)[nH]c4=O)C[C@@H]3OP(=O)(O)OC[C@H]3O[C@@H](n4cc(C)c(=O)[nH]c4=O)C[C@@H]3O[P@@](=O)(OC[C@H]3O[C@@H](n4cc(C)c(=O)[nH]c4=O)C[C@@H]3OP(=O)(O)OC[C@H]3O[C@@H](n4cc(C)c(=O)[nH]c4=O)C[C@@H]3OP(=O)(O)OC[C@H]3O[C@@H](n4cc(C)c(=O)[nH]c4=O)C[C@@H]3OP(=O)(O)OC[C@H]3O[C@@H](n4ccc(N)nc4=O)C[C@@H]3OP(=O)(O)OC[C@H]3O[C@@H](n4ccc(N)nc4=O)C[C@@H]3OP(=O)(O)OC[C@H]3O[C@@H](n4ccc(N)nc4=O)C[C@@H]3OP(=O)(O)O)SCCCCN)[C@@H](COP(=O)(O)O[C@H]3C[C@H](n4ccc(N)nc4=O)O[C@@H]3COP(=O)(O)O[C@H]3C[C@H](n4ccc(N)nc4=O)O[C@@H]3COP(=O)(O)O[C@H]3C[C@H](n4ccc(N)nc4=O)O[C@@H]3CO)O2)c(=O)[nH]c1=O`, the Tm [1] is reported as 44 °C, the ΔTm [2] is reported as 2 °C and the Tm [3] is reported as 45 °C. For the same molecule, the ΔTm [4] was -1 °C, the Tm [5] was 27 °C and the ΔTm [6] was 2 °C.
